Laboratory results taken from patent publication US8124637B2, “Anthra [1, 2-d]imidazole-6,11-dione derivatives, preparation method and application thereof” (National Defense Medical Center, priority 2010, dated 2012).

Legend:
HCT-15 = test: NCI 60-cell drug screen, one dose; type: cell-based, human; details: Colon Cancer HCT-15, 1.00E−5 Molar
Protocol: (§1) In brief, cellular protein levels were determined after 48 hours of drug exposure by sulforhodamine B colorimetry.
(§2) The screening system in United State National Cancer Institute (NCI) consists of 60 kinds of different human cancer cells, which can be used to assay the growth-inhibiting ability or cell toxicity of a compound against various cancer and tumor at a certain concentration. The NCI had selected 6 compounds synthesized above, and performed cell toxicity assay against 60 kinds of cancer cell strains (Table 2) (DTP Human Tumor Cell Line Screen), in which each compound was assayed at a certain concentration to observe its inhibition ability or cell toxicity against various kinds of cancer and tumor.

HL-60(TB) = test: NCI 60-cell drug screen, one dose; type: cell-based, human; details: Leukemia HL-60(TB), 1.00E−5 Molar
Protocol: as §1, §2

HCC-2998 = test: NCI 60-cell drug screen, one dose; type: cell-based, human; details: Colon Cancer HCC-2998, 1.00E−5 Molar
Protocol: as §1, §2

BT-549 = test: NCI 60-cell drug screen, one dose; type: cell-based, human; details: Breast Cancer BT-549, 1.00E−5 Molar
Protocol: as §1, §2

UO-31 = test: NCI 60-cell drug screen, one dose; type: cell-based, human; details: Renal Cancer UO-31, 1.00E−5 Molar
Protocol: as §1, §2

OVCAR-3 = test: NCI 60-cell drug screen, one dose; type: cell-based, human; details: Ovarian Cancer OVCAR-3, 1.00E−5 Molar
Protocol: as §1, §2

HOP-92 = test: NCI 60-cell drug screen, one dose; type: cell-based, human; details: Non-Small Cell Lung Cancer HOP-92, 1.00E−5 Molar
Protocol: as §1, §2

SR = test: NCI 60-cell drug screen, one dose; type: cell-based, human; details: Leukemia SR, 1.00E−5 Molar
Protocol: as §1, §2

SK-MEL-5 = test: NCI 60-cell drug screen, one dose; type: cell-based, human; details: Melanoma SK-MEL-5, 1.00E−5 Molar
Protocol: as §1, §2

NCI/ADR-RES = test: NCI 60-cell drug screen, one dose; type: cell-based, human; details: Ovarian Cancer NCI/ADR-RES, 1.00E−5 Molar
Protocol: as §1, §2

NCI-H226 = test: NCI 60-cell drug screen, one dose; type: cell-based, human; details: Non-Small Cell Lung Cancer NCI-H226, 1.00E−5 Molar
Protocol: as §1, §2

COLO 205 = test: NCI 60-cell drug screen, one dose; type: cell-based, human; details: Colon Cancer COLO 205, 1.00E−5 Molar
Protocol: as §1, §2

IGROV1 = test: NCI 60-cell drug screen, one dose; type: cell-based, human; details: Ovarian Cancer IGROV1, 1.00E−5 Molar
Protocol: as §1, §2

MOLT-4 = test: NCI 60-cell drug screen, one dose; type: cell-based, human; details: Leukemia MOLT-4, 1.00E−5 Molar
Protocol: as §1, §2

NCI-H460 = test: NCI 60-cell drug screen, one dose; type: cell-based, human; details: Non-Small Cell Lung Cancer NCI-H460, 1.00E−5 Molar
Protocol: as §1, §2

MCF7 = test: NCI 60-cell drug screen, one dose; type: cell-based, human; details: Breast Cancer MCF7, 1.00E−5 Molar
Protocol: as §1, §2

CCRF-CEM = test: NCI 60-cell drug screen, one dose; type: cell-based, human; details: Leukemia CCRF-CEM, 1.00E−5 Molar
Protocol: as §1, §2

UACC-62 = test: NCI 60-cell drug screen, one dose; type: cell-based, human; details: Melanoma UACC-62, 1.00E−5 Molar
Protocol: as §1, §2

PC-3 = test: NCI 60-cell drug screen, one dose; type: cell-based, human; details: Prostate Cancer PC-3, 1.00E−5 Molar
Protocol: as §1, §2

U251 = test: NCI 60-cell drug screen, one dose; type: cell-based, human; details: CNS Cancer U251, 1.00E−5 Molar
Protocol: as §1, §2

HCT-116 = test: NCI 60-cell drug screen, one dose; type: cell-based, human; details: Colon Cancer HCT-116, 1.00E−5 Molar
Protocol: as §1, §2

NCI-H23 = test: NCI 60-cell drug screen, one dose; type: cell-based, human; details: Non-Small Cell Lung Cancer NCI-H23, 1.00E−5 Molar
Protocol: as §1, §2

MALME-3M = test: NCI 60-cell drug screen, one dose; type: cell-based, human; details: Melanoma MALME-3M, 1.00E−5 Molar
Protocol: as §1, §2

T-47D = test: NCI 60-cell drug screen, one dose; type: cell-based, human; details: Breast Cancer T-47D, 1.00E−5 Molar
Protocol: as §1, §2

SF-268 = test: NCI 60-cell drug screen, one dose; type: cell-based, human; details: CNS Cancer SF-268, 1.00E−5 Molar
Protocol: as §1, §2

OVCAR-4 = test: NCI 60-cell drug screen, one dose; type: cell-based, human; details: Ovarian Cancer OVCAR-4, 1.00E−5 Molar
Protocol: as §1, §2

[1] = MTT assay (relative cell survival), H1299; details: human, H1299 non-small cell lung cancer cells (PhTERT-SEAP), Relative MTT viability (%)
SF-295 = test: NCI 60-cell drug screen, one dose; type: cell-based, human; details: CNS Cancer SF-295, 1.00E−5 Molar
Protocol: as §1, §2

A549/ATCC = test: NCI 60-cell drug screen, one dose; type: cell-based, human; details: Non-Small Cell Lung Cancer A549/ATCC, 1.00E−5 Molar
Protocol: as §1, §2

OVCAR-8 = test: NCI 60-cell drug screen, one dose; type: cell-based, human; details: Ovarian Cancer OVCAR-8, 1.00E−5 Molar
Protocol: as §1, §2

in vitro = details: human, Relative MTT viability (%)

## O=C1c2ccccc2C(=O)c2c1ccc1nc(CN3CCCCC3)[nH]c21 [CL16, 2-((piperidin-1-yl)methyl)-1H-anthra[1,2-d]imidazole-6,11-dione]
HCT-15
  Growth Percent: 54.20%
HL-60(TB)
  Growth Percent: 56.89%
HCC-2998
  Growth Percent: 82.81%
BT-549
  Growth Percent: 109.47%
UO-31
  Growth Percent: 42.93%
OVCAR-3
  Growth Percent: 66.26%
HOP-92
  Growth Percent: 80.97%
SR
  Growth Percent: 57.64%
SK-MEL-5
  Growth Percent: 65.73%
NCI/ADR-RES
  Growth Percent: 73.52%
NCI-H226
  Growth Percent: 78.85%
COLO 205
  Growth Percent: 74.65%
IGROV1
  Growth Percent: 54.22%
MOLT-4
  Growth Percent: 22.77%
NCI-H460
  Growth Percent: 64.61%
MCF7
  Growth Percent: 42.74%
CCRF-CEM
  Growth Percent: 102.47%
UACC-62
  Growth Percent: 74.61%
PC-3
  Growth Percent: 81.94%
U251
  Growth Percent: 72.67%
HCT-116
  Growth Percent: 62.12%
NCI-H23
  Growth Percent: 81.32%
MALME-3M
  Growth Percent: 119.68%
T-47D
  Growth Percent: 69.11%
SF-268
  Growth Percent: 58.46%
OVCAR-4
  Growth Percent: 65.27%
[1]
  viability at 72 h, 1 µM: 111 ± 8.66%
[1]; 100 μM
  viability at 72 h, 100 µM: 19.6%

## CCN(CC)Cc1nc2ccc3c(c2[nH]1)C(=O)c1ccccc1C3=O [CL04, 2-((diethylamino)methyl)-1H-anthra[1,2-d]imidazole-6,11-dione]
HCT-15
  Growth Percent: 65.75%
HL-60(TB)
  Growth Percent: 68.18%
HCC-2998
  Growth Percent: 80.61%
BT-549
  Growth Percent: 105.50%
UO-31
  Growth Percent: 27.21%
OVCAR-3
  Growth Percent: 63.32%
HOP-92
  Growth Percent: 56.11%
SR
  Growth Percent: 42.38%
SK-MEL-5
  Growth Percent: 68.20%
NCI/ADR-RES
  Growth Percent: 65.32%
NCI-H226
  Growth Percent: 77.20%
COLO 205
  Growth Percent: 81.00%
IGROV1
  Growth Percent: 13.61%
NCI-H460
  Growth Percent: 55.50%
MCF7
  Growth Percent: 51.13%
CCRF-CEM
  Growth Percent: 47.88%
UACC-62
  Growth Percent: 68.47%
U251
  Growth Percent: 70.77%
HCT-116
  Growth Percent: 48.22%
NCI-H23
  Growth Percent: 75.96%
MALME-3M
  Growth Percent: 98.45%
T-47D
  Growth Percent: 83.55%
SF-268
  Growth Percent: 74.04%
OVCAR-4
  Growth Percent: 65.69%
SF-295
  Growth Percent: 89.56%
[1]
  viability at 72 h, 1 µM: 101 ± 6.67%
  viability at 72 h, 10 µM: > 50%

## O=C1c2ccccc2C(=O)c2c1ccc1nc(CN3CCN(c4ccccc4)CC3)[nH]c21 [CL27, 2-((4-phenylpiperazin-1-yl)methyl)-1H-anthra[1,2-d]imidazole-6,11-dione]
HCT-15
  Growth Percent: 74.39%
HL-60(TB)
  Growth Percent: 107.54%
BT-549
  Growth Percent: 110.22%
UO-31
  Growth Percent: 58.33%
OVCAR-3
  Growth Percent: 76.56%
HOP-92
  Growth Percent: 178.61%
SR
  Growth Percent: 43.11%
SK-MEL-5
  Growth Percent: 74.84%
NCI/ADR-RES
  Growth Percent: 80.36%
NCI-H226
  Growth Percent: 82.98%
COLO 205
  Growth Percent: 128.37%
IGROV1
  Growth Percent: 69.25%
MOLT-4
  Growth Percent: 55.21%
NCI-H460
  Growth Percent: 94.45%
A549/ATCC
  Growth Percent: 111.76%
MCF7
  Growth Percent: 66.08%
CCRF-CEM
  Growth Percent: 74.42%
UACC-62
  Growth Percent: 93.36%
PC-3
  Growth Percent: 77.91%
U251
  Growth Percent: 84.83%
HCT-116
  Growth Percent: 78.28%
NCI-H23
  Growth Percent: 92.11%
MALME-3M
  Growth Percent: 119.09%
T-47D
  Growth Percent: 66.35%
SF-268
  Growth Percent: 80.44%
OVCAR-8
  Growth Percent: 80.89%
OVCAR-4
  Growth Percent: 67.72%
SF-295
  Growth Percent: 105.37%
In vitro
  viability at 72 h, 1 µM: 90.2 ± 3.86%
  viability at 72 h, 10 µM: 54.4%
  viability at 72 h, 100 µM: 18.1%

## CN1CCN(Cc2nc3ccc4c(c3[nH]2)C(=O)c2ccccc2C4=O)CC1 [CL24, 2-((4-methylpiperazin-1-yl)methyl)-1H-anthra[1,2-d]imidazole-6,11-dione]
HCT-15
  Growth Percent: 44.98%
HL-60(TB)
  Growth Percent: 65.29%
HCC-2998
  Growth Percent: 61.90%
BT-549
  Growth Percent: 100.53%
UO-31
  Growth Percent: 22.93%
OVCAR-3
  Growth Percent: 52.79%
HOP-92
  Growth Percent: 9.17%
SR
  Growth Percent: 21.48%
SK-MEL-5
  Growth Percent: 77.46%
NCI-H226
  Growth Percent: 64.48%
COLO 205
  Growth Percent: 53.66%
IGROV1
  Growth Percent: 12.05%
NCI-H460
  Growth Percent: 57.35%
MCF7
  Growth Percent: 36.71%
CCRF-CEM
  Growth Percent: 34.45%
UACC-62
  Growth Percent: 81.12%
U251
  Growth Percent: 65.41%
HCT-116
  Growth Percent: 27.73%
NCI-H23
  Growth Percent: 72.97%
MALME-3M
  Growth Percent: 89.63%
T-47D
  Growth Percent: 97.08%
SF-268
  Growth Percent: 51.16%
OVCAR-4
  Growth Percent: 50.98%
SF-295
  Growth Percent: 81.61%
[1]
  viability at 72 h, 1 µM: 87.4 ± 5.52%
  viability at 72 h, 10 µM: < 50%
